Experimental data: patent US4559323A, “A41030 Antibiotics” (Eli Lilly and Company, priority 1984, dated 1985)
Like-named read-outs stand apart in the source and are kept apart here.

Columns and labels:
Clostridium perfringens = assay type: cell-based; settings: Table 14; Clostridium perfringens 81
Hemophilus influenzae = test: Agar-dilution MIC; assay type: cell-based; settings: Table 17, 24 hours
[1] = tested on: Fusobacterium necrophorum; test: Agar-dilution MIC (anaerobes); assay type: cell-based; settings: Table 14; Fusobacterium necrophorum 6054A
[2] = Electrometric titration (pKa); assay type: physicochemical; settings: electrometric titration in 66% dimethylformamide in water
[3] = tested on: Peptostreptococcus intermedius; test: Agar-dilution MIC (anaerobes); assay type: cell-based; settings: Table 14; Peptostreptococcus intermedius 1264
Eubacterium aerofaciens = test: Agar-dilution MIC (anaerobes); assay type: cell-based; settings: Table 14; Eubacterium aerofaciens 1235
Peptococcus prevoti = test: Agar-dilution MIC (anaerobes); assay type: cell-based; settings: Table 14; Peptococcus prevoti 1281
Clostridium difficile = assay type: cell-based
Text: The A41030 antibiotic factors A, B, C, D, E, F, and G, are also active against a number of strains of Clostridium difficile, as determined by the agar-dilution method.

[4] = tested on: Peptostreptococcus anaerobius; test: Agar-dilution MIC (anaerobes); assay type: cell-based; settings: Table 14; Peptostreptococcus anaerobius 1428
Bacteroides fragilis = test: Agar-dilution MIC (anaerobes); assay type: cell-based; settings: Table 14
Text: (§1) The agar-dilution procedure described by the International Collaborative study (ICS) group was used to determine the minimum inhibitory concentrations (MIC's).

B. thetaiotaomicron = assay type: cell-based; settings: Table 14; Bacteroides thetalotaomicron 1438
Text: as §1

Staph. aureus = test: Experimental bacterial infection in mice, subcutaneous ED50; assay type: in vivo; settings: two doses subcutaneously
Description: (§2) All of the A41030 factors tested have shown in vivo antimicrobial activity against experimental bacterial infections. When two doses of test compound were administered subcutaneously to mice in illustrative infections, the activity observed is measured as an ED50 value [effective dose in mg./kg. to protect fifty percent of the test animals: See Warren Wick, et al., J. Bacteriol. 81, 233-235 (1961)].

S. pneumoniae = test: as above; assay type: in vivo; settings: two doses subcutaneously
Description: as §2

S. pyogenes = test: as above; assay type: in vivo; settings: two doses subcutaneously
Description: as §2

Salmonella typhi = test: Agar-dilution MIC; assay type: cell-based; settings: Table 17, 24 hours
Bacteroides corrodens = test: Agar-dilution MIC (anaerobes); assay type: cell-based; settings: Table 14; Bacteroides corrodens 1874
Staphylococcus aureus = test: Agar-dilution MIC; assay type: cell-based
[5] = tested on: Streptococcus sp. (Group D); test: Agar-dilution MIC; assay type: cell-based; settings: Table 17, 24 hours
Text: as §1

[6] = tested on: Staphylococcus epidermidis; test: Agar-dilution MIC; assay type: cell-based; settings: Table 17, 24 hours
Text: as §1

Streptococcus pneumoniae = test: Agar-dilution MIC; assay type: cell-based; settings: Table 17; 24 hours; Streptococcus pneumoniae Park I
Text: as §1

Streptococcus pyogenes = test: Agar-dilution MIC; assay type: cell-based; settings: Table 17; 24 hours; Streptococcus pyogenes C203
Text: as §1

Solubility in solvents = assay type: physicochemical; settings: solvents as named
Text: The seven antibiotic factors are recovered from the fermentation and are obtained as a mixture, the A41030 complex. It will be recognized that the ratio of the factors in the A41030 complex will vary, depending upon the fermentation conditions used. The individual factors […], and G are separated and isolated as individual compounds, as hereinafter described.

[7] = tested on: Peptococcus asaccharolyticus; test: Agar-dilution MIC (anaerobes); assay type: cell-based; settings: Table 14; Peptococcus asaccharolyticus 1302
Fusobacterium symbiosum = test: Agar-dilution MIC (anaerobes); assay type: cell-based; settings: Table 14; Fusobacterium symbiosum 1470
Klebsiella pneumoniae = test: Agar-dilution MIC; assay type: cell-based; settings: Table 17; 24 hours; Klebsiella pneumoniae X26
Bacteroides vulgatis = test: Agar-dilution MIC (anaerobes); assay type: cell-based; settings: Table 14; Bacteroides vulgatis 1211
Propionibacterium acnes = test: Agar-dilution MIC (anaerobes); assay type: cell-based; settings: Table 14; Propionibacterium acnes 79
Text: Antibiotic A41030 factors A, B and C have also been tested and found to be active against a genus of anaerobic bacteria identified as Propionibacterium acnes.

Clostridium septicum = test: Agar-dilution MIC (anaerobes); assay type: cell-based; settings: Table 14; Clostridium septicum 1128
Escherichia coli = test: Agar-dilution MIC; assay type: cell-based; settings: Table 17; 24 hours; Escherichia coli TEM
[8] = tested on: Bacteroides melaninogenicus; test: Agar-dilution MIC (anaerobes); assay type: cell-based; settings: Table 14

## A41030 factor D
Clostridium perfringens
  MIC: 0.5 µg/mL
Hemophilus influenzae; Haemophilus influenzae 76
  MIC: 8 µg/mL
Hemophilus influenzae; Haemophilus influenzae C.L.
  MIC: 8 µg/mL
[1]
  MIC: ≤ 0.125 µg/mL
[2]
  pKa, first titratable group: about 5.5
  pKa, second titratable group: ~7.6
[3]
  MIC: 1.0 µg/mL
Eubacterium aerofaciens
  MIC: 0.5 µg/mL
Peptococcus prevoti
  MIC: 0.25 µg/mL
Clostridium difficile
  MIC: 0.5 µg/mL
Clostridium difficile; Table 16, C. difficile 78
  MIC: ≤ 0.25 µg/mL
Clostridium difficile; Table 16, C. difficile 107B
  MIC: ≤ 0.25 µg/mL
Clostridium difficile; Table 16, C. difficile 111F
  MIC: ≤ 0.25 µg/mL
Clostridium difficile; Table 16, C. difficile 1153
  MIC: 1.0 µg/mL
Clostridium difficile; Table 16, C. difficile 2634
  MIC: 0.5 µg/mL
Clostridium difficile; Table 16, C. difficile 3424-5B
  MIC: 0.5 µg/mL
Clostridium difficile; Table 16, C. difficile 3816
  MIC: 0.5 µg/mL
Clostridium difficile; Table 16, C. difficile 3950
  MIC: 0.5 µg/mL
Clostridium difficile; Table 16, C. difficile 6890
  MIC: 0.5 µg/mL
Clostridium difficile; Table 16, C. difficile 8484
  MIC: ≤ 0.25 µg/mL
Clostridium difficile; Table 16, C. difficile A-194
  MIC: ≤ 0.25 µg/mL
Clostridium difficile; Table 16, C. difficile A-195
  MIC: ≤ 0.25 µg/mL
Clostridium difficile; Table 16, C. difficile A-196
  MIC: 0.5 µg/mL
Clostridium difficile; Table 16, C. difficile A-279
  MIC: ≤ 0.25 µg/mL
Clostridium difficile; Table 16, C. difficile A-280
  MIC: ≤ 0.25 µg/mL
Clostridium difficile; Table 16, C. difficile A-281
  MIC: 0.5 µg/mL
Clostridium difficile; Table 16, C. difficile WAL-2112
  MIC: ≤ 0.25 µg/mL
Clostridium difficile; Table 16, C. difficile WAL-3657
  MIC: ≤ 0.25 µg/mL
Clostridium difficile; Table 16, C. difficile WAL-4268
  MIC: ≤ 0.25 µg/mL
[4]
  MIC: 0.5 µg/mL
Bacteroides fragilis; Bacteroides fragilis 111
  MIC: 32 µg/mL
Bacteroides fragilis; Bacteroides fragilis 1877
  MIC: 32 µg/mL
Bacteroides fragilis; Bacteroides fragilis 1936B
  MIC: 32 µg/mL
B. thetaiotaomicron
  MIC: 32 µg/mL
Staph. aureus
  ED50: 0.339 mg/kg
S. pneumoniae
  ED50: 2.21 mg/kg
S. pyogenes
  ED50: 3.24 mg/kg
Salmonella typhi; Salmonella typhi 1335
  MIC: > 128 µg/mL
Salmonella typhi; Salmonella typhi X514
  MIC: > 128 µg/mL
Bacteroides corrodens
  MIC: 32 µg/mL
Staphylococcus aureus
  MIC: 0.25 µg/mL
Staphylococcus aureus; Table 17, 24 hours, Staphylococcus aureus S13E
  MIC: 0.25 µg/mL
Staphylococcus aureus; Table 17, 24 hours, Staphylococcus aureus V41
  MIC: 0.25 µg/mL
Staphylococcus aureus; Table 17, 24 hours, Staphylococcus aureus X400
  MIC: 0.25 µg/mL
[5]; Streptococcus sp. Group D 9960
  MIC: 1 µg/mL
[5]; Streptococcus sp. Group D X66
  MIC: 1 µg/mL
[6]; Staphylococcus epidermidis EPI1
  MIC: 0.25 µg/mL
[6]; Staphylococcus epidermidis EPI2
  MIC: 1 µg/mL
Streptococcus pneumoniae
  MIC: 0.5 µg/mL
Streptococcus pyogenes
  MIC: 0.5 µg/mL
Solubility in solvents
  Solubility: soluble in the same solvents as factor A
[7]
  MIC: ≤ 0.125 µg/mL
Fusobacterium symbiosum
  MIC: 0.5 µg/mL
Klebsiella pneumoniae
  MIC: 128 µg/mL
Bacteroides vulgatis
  MIC: 32 µg/mL
Propionibacterium acnes
  MIC: 0.25 µg/mL
Clostridium septicum
  MIC: 0.25 µg/mL
Escherichia coli
  MIC: 64 µg/mL
[8]; Bacteroides melaninogenicus 1856/28
  MIC: > 64 µg/mL
[8]; Bacteroides melaninogenicus 2736
  MIC: 0.5 µg/mL
